# ChEMBL document CHEMBL1201862, “PubChem BioAssay data set” (2004)
#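 Grown in 96-well plates, cells were treated for 48 hours with each compound at five concentrations. Insufficient inhibition: endpoint recorded as highest concentration tested. At the GI50, growth is halved.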 Active and inactive are the calls of the source. Cut-off read from the data, not from the text of the source: active = GI50 up to about 1.1 µM and inactive = higher.
# Experiments:
# Experiment in all cases: NCI tumour cell line growth inhibition, 48 h
# [1] = system: A498
# [2] = system: SNB-75
# [3] = system: NCI-H522
# [4] = system: MCF7
# [5] = system: SNB-19
# [6] = system: K562
# [7] = system: IGROV-1
# [8] = system: MDA-N
# [9] = system: MDA-MB-231
# [10] = system: SK-MEL-2
# [11] = system: SK-OV-3
# [12] = system: MDA-MB-435
# [13] = system: OVCAR-4
# [14] = system: CAKI-1
# [15] = system: SF-539
# [16] = system: ACHN
# [17] = system: KM12
# [18] = system: TK-10
# [19] = system: SK-MEL-5
# [20] = system: SW-620
# [21] = system: OVCAR-3
# [22] = system: BT-549
# [23] = system: SN12C
# [24] = system: HCT-116
# [25] = system: SF-268
# [26] = system: LOX IMVI
# [27] = system: OVCAR-8
# [28] = system: HOP-92
# [29] = system: M14
# [30] = system: PC-3
# [31] = system: COLO 205
# [32] = system: T47D
# [33] = system: EKVX
# [34] = system: OVCAR-5
# [35] = system: U-251
# [36] = system: CCRF-CEM
# [37] = system: HT-29
# [38] = system: A549
# [39] = system: NCI-H226
# [40] = system: SF-295
# [41] = system: HOP-62
# [42] = system: UACC-257
# [43] = system: SK-MEL-28
# [44] = system: UO-31
# [45] = system: MOLT-4
# [46] = system: NCI/ADR-RES
# [47] = system: Malme-3M
# [48] = system: RXF 393
# [49] = system: NCI-H23
# [50] = system: RPMI-8226
# [51] = system: Hs-578T
# [52] = system: DU-145
# [53] = system: 786-0
# [54] = system: NCI-H460
# [55] = system: HCT-15
# [56] = system: UACC-62
structure (smiles),measurement,setting,value
CC(Nc1ccc(Cl)c(Cl)c1)c1ccncc1 (centres undefined),GI50,[1],20.1 µM (inactive)
same,GI50,[2],23 µM (inactive)
same,GI50,[3],12.5 µM (inactive)
same,GI50,[4],22.4 µM (inactive)
same,GI50,[5],22.5 µM (inactive)
same,GI50,[6],45.3 µM (inactive)
same,GI50,[7],25.4 µM (inactive)
same,GI50,[8],24.6 µM (inactive)
same,GI50,[9],16 µM (inactive)
same,GI50,[10],22.9 µM (inactive)
same,GI50,[11],11.4 µM (inactive)
same,GI50,[12],29.4 µM (inactive)
same,GI50,[13],58.2 µM (inactive)
same,GI50,[14],31 µM (inactive)
same,GI50,[15],30.8 µM (inactive)
same,GI50,[16],19.1 µM (inactive)
same,GI50,[17],14.9 µM (inactive)
same,GI50,[18],31.9 µM (inactive)
same,GI50,[19],16.7 µM (inactive)
same,GI50,[20],20.7 µM (inactive)
same,GI50,[21],26.8 µM (inactive)
same,GI50,[22],26.1 µM (inactive)
same,GI50,[23],50.7 µM (inactive)
same,GI50,[24],16.6 µM (inactive)
same,GI50,[25],44 µM (inactive)
same,GI50,[26],18.4 µM (inactive)
same,GI50,[27],21.8 µM (inactive)
same,GI50,[28],18.9 µM (inactive)
same,GI50,[29],29 µM (inactive)
same,GI50,[30],19.4 µM (inactive)
same,GI50,[31],16.5 µM (inactive)
same,GI50,[32],51.6 µM (inactive)
same,GI50,[33],39.9 µM (inactive)
same,GI50,[34],> 10 µM (inactive)
same,GI50,[35],19.9 µM (inactive)
same,GI50,[36],20.7 µM (inactive)
same,GI50,[37],23.7 µM (inactive)
same,GI50,[38],10.5 µM (inactive)
same,GI50,[39],17.9 µM (inactive)
same,GI50,[40],23.9 µM (inactive)
same,GI50,[41],20.9 µM (inactive)
same,GI50,[42],26.2 µM (inactive)
same,GI50,[43],35.7 µM (inactive)
same,GI50,[44],11.6 µM (inactive)
same,GI50,[45],19.5 µM (inactive)
same,GI50,[46],28.1 µM (inactive)
same,GI50,[47],34.3 µM (inactive)
same,GI50,[48],17.6 µM (inactive)
same,GI50,[49],31.4 µM (inactive)
same,GI50,[50],5.75 µM (inactive)
same,GI50,[51],> 10 µM (inactive)
same,GI50,[52],30.2 µM (inactive)
same,GI50,[53],29 µM (inactive)
same,GI50,[54],16.6 µM (inactive)
same,GI50,[55],40.3 µM
CC(C)(C)c1cc(C2COC(c3cc(C(C)(C)C)c(O)c(C(C)(C)C)c3)CO2)cc(C(C)(C)C)c1O (centres undefined),GI50,[1],> 100 µM (inactive)
same,GI50,[2],> 100 µM (inactive)
same,GI50,[3],> 100 µM (inactive)
same,GI50,[4],> 100 µM (inactive)
same,GI50,[5],> 100 µM (inactive)
same,GI50,[6],> 100 µM (inactive)
same,GI50,[7],> 100 µM (inactive)
same,GI50,[8],> 100 µM (inactive)
same,GI50,[9],> 100 µM (inactive)
same,GI50,[56],> 100 µM (inactive)
same,GI50,[10],> 100 µM (inactive)
same,GI50,[11],> 100 µM (inactive)
same,GI50,[12],> 100 µM (inactive)
same,GI50,[13],> 100 µM (inactive)
same,GI50,[14],> 100 µM (inactive)
same,GI50,[15],> 100 µM (inactive)
same,GI50,[16],> 100 µM (inactive)
same,GI50,[17],> 100 µM (inactive)
same,GI50,[18],> 100 µM (inactive)
same,GI50,[19],> 100 µM (inactive)
same,GI50,[20],> 100 µM (inactive)
same,GI50,[21],> 100 µM (inactive)
same,GI50,[22],> 100 µM (inactive)
same,GI50,[23],> 100 µM (inactive)
same,GI50,[24],51.6 µM (inactive)
same,GI50,[25],> 100 µM (inactive)
same,GI50,[26],> 100 µM (inactive)
same,GI50,[27],> 100 µM (inactive)
same,GI50,[28],> 100 µM (inactive)
same,GI50,[29],> 100 µM (inactive)
same,GI50,[30],> 100 µM (inactive)
same,GI50,[31],33.1 µM (inactive)
same,GI50,[32],> 100 µM (inactive)
same,GI50,[33],> 100 µM (inactive)
same,GI50,[34],> 100 µM (inactive)
same,GI50,[35],90.4 µM (inactive)
same,GI50,[36],> 100 µM (inactive)
same,GI50,[37],> 100 µM (inactive)
same,GI50,[38],> 100 µM (inactive)
same,GI50,[39],> 100 µM (inactive)
same,GI50,[40],> 100 µM (inactive)
same,GI50,[41],> 100 µM (inactive)
same,GI50,[42],> 100 µM (inactive)
same,GI50,[43],> 100 µM (inactive)
same,GI50,[44],> 100 µM (inactive)
same,GI50,[46],> 100 µM (inactive)
same,GI50,[47],> 100 µM (inactive)
same,GI50,[48],> 100 µM (inactive)
same,GI50,[49],> 100 µM (inactive)
same,GI50,[50],> 100 µM (inactive)
same,GI50,[51],> 100 µM (inactive)
same,GI50,[52],> 100 µM (inactive)
same,GI50,[53],> 100 µM (inactive)
same,GI50,[55],> 100 µM
